This experiment relates to intraocular pressure in rabbits. Nature of the experiment: Effects of topically administered renin inhibiting compounds on intraocular pressure of rabbits. Conditions: topical 0.1 ml, 0.1% (w/v). It is filed as in vivo, Male albino, New Zealand rabbits. As to the method: The antiglaucoma activity of the compounds was tested by measuring the effect on intraocular pressure in rabbits as described by Tinjum, A.M., Acta Ophthalmologica, 50, 677 (1972). Male albino, New Zealand rabbits were placed in restraining devices and the intraocular pressure was measured with an applamatic tonometer. Exactly 0.1 ml of an isotonic saline solution containing a test compound was instilled into the conjuctival sac and the intraocular pressure was measured at 5, 15, 30, 60, 90, 120 and 180 minutes afterwards.

[1] abbreviates: 15 minutes after administration.
Setting [2] is: 30 minutes after administration.
The mark [3] stands for this setting: 60 minutes after administration.
Where [4] appears, read: 90 minutes after administration.
[5] abbreviates: 120 minutes after administration.
The mark [6] stands for this setting: 180 minutes after administration.

Counter-ions that a name gives are not always drawn.

For the molecule `C=C(C[C@H](O)[C@H](CC1CCCCC1)NC(=O)C(Cc1cnc[nH]1)NC(=O)C(Cc1ccccc1)NC(=O)OC(C)(C)C)C(=O)NCCC(C)C` (stereo partly drawn) [Compound IX, Boc-Phe-His amide of (4S,5S) N-(3-methylbutyl)-5-amino-6-cyclohexyl-1-hexen-4-ol-2-carboxamide], the “Mean Intraocular Pressure in mmHg” value is recorded as 22.2 mmHg (0 minutes after administration); 22.5 mmHg (5 minutes after administration); 18.1 mmHg under setting [1]; 15.8 mmHg under setting [2]; 19.5 mmHg under setting [3]; 22.4 mmHg under setting [4]. In addition, the “Mean Intraocular Pressure in mmHg” value runs as follows: under setting [5], 24.3 mmHg; under setting [6], 24.2 mmHg.
In the case of `CC(C)CC(=O)NCC[C@H](O)[C@H](CC1CCCCC1)NC(=O)C(Cc1cnc[nH]1)NC(=O)C(Cc1ccccc1)NC(=O)OC(C)(C)C` (some centres unmarked) [Compound VIII], the “Mean Intraocular Pressure in mmHg” value is, setting by setting: (0 minutes after administration) 19.4 mmHg; (5 minutes after administration) 17.0 mmHg; under setting [1], 16.5 mmHg; under setting [2], 15.4 mmHg; under setting [3], 18.4 mmHg; under setting [4], 21.2 mmHg. The “Mean Intraocular Pressure in mmHg” value turned out to be 20.5 mmHg under setting [5] and 21.9 mmHg under setting [6].
Take `CC(C)(C)OC(=O)NC(Cc1ccccc1)C(=O)NC(Cc1cnc[nH]1)C(=O)N[C@@H](CC1CCCCC1)[C@@H](O)[C@@H](O)CN` (stereo partly drawn) [Compound X, Boc-Phe-His amide (4-amino) of (2S,3R,4S) 1,4-diamino-2,3-dihydroxy-5-cyclohexylpentane]: the “Mean Intraocular Pressure in mmHg” value is, setting by setting: (0 minutes after administration) 20.8 mmHg; (5 minutes after administration) 20.6 mmHg; under setting [1], 20.6 mmHg; under setting [2], 15.9 mmHg; under setting [3], 15.1 mmHg; under setting [4], 19.1 mmHg. Moreover, the “Mean Intraocular Pressure in mmHg” value reads like this: under setting [5], 20.6 mmHg; under setting [6], 21.7 mmHg.
Turning to `CC(C)(C)OC(=O)NC(Cc1ccccc1)C(=O)NC(Cc1cnc[nH]1)C(=O)NC(CC1CCCCC1)C(O)CSC1CCCCC1` (stereo not drawn) [Compound VI, Boc-Phe-His amide of 3-amino-4 cyclohexyl 1 cyclohexylmercapto-2-hydroxybutane], the “Mean Intraocular Pressure in mmHg” value runs as follows: (0 minutes after administration) 21.0 mmHg; (5 minutes after administration) 16.5 mmHg; under setting [1], 16.5 mmHg; under setting [2], 15.2 mmHg; under setting [3], 14.7 mmHg; under setting [4], 21.7 mmHg. Also, the “Mean Intraocular Pressure in mmHg” value came out at 22.4 mmHg under setting [5] and 19.9 mmHg under setting [6].
As for “Boc-Phe-Histidinyl-4-amino-3-hydroxy 5-cyclohexylpentanoic acid amide of 2 methylbutylamine [Compound VII]”, the “Mean Intraocular Pressure in mmHg” value is, setting by setting: (0 minutes after administration) 19.7 mmHg; (5 minutes after administration) 17.2 mmHg; under setting [1], 13.8 mmHg; under setting [2], 14.3 mmHg; under setting [3], 14.8 mmHg; under setting [4], 19.3 mmHg. The “Mean Intraocular Pressure in mmHg” value stood at 21.1 mmHg under setting [5] and 22.7 mmHg under setting [6].
Turning to `CC(C)C[C@H](O)[C@H](O)[C@H](CC1CCCCC1)NC(=O)[C@H](Cc1cnc[nH]1)NC(=O)[C@H](Cc1ccccc1)NC(=O)N1CCC(O)CC1` [Compound III, (1-(4 hydroxypiperidinyl)carbonyl)-Phe-His amide of 2(S)-amino 1-cyclohexyl-3(R),4(S) dihydroxy 6-methylheptane], the “Mean Intraocular Pressure in mmHg” value worked out at 19.1 mmHg (0 minutes after administration); 15.5 mmHg (5 minutes after administration); 12.4 mmHg under setting [1]; 13.9 mmHg under setting [2]; 14.9 mmHg under setting [3]; 16.3 mmHg under setting [4]. In addition, the “Mean Intraocular Pressure in mmHg” value is, setting by setting: under setting [5], 17.8 mmHg; under setting [6], 18.2 mmHg.
For `COc1ccc(C[C@H](NC(=O)CC(C)(C)N)C(=O)N[C@@H](Cc2cnc[nH]2)C(=O)N[C@@H](CC2CCCCC2)[C@@H](O)[C@@H](O)CC(C)C)cc1` [Compound II, H-((beta,betadimethyl)-beta-Ala)-(4 OCH3)Phe-His amide of 2(S)-amino-1-cyclohexyl-3(R),4(S) dihydroxy-6-methylheptane di-acetic acid salt], the “Mean Intraocular Pressure in mmHg” value by setting is: (0 minutes after administration) 18.4 mmHg; (5 minutes after administration) 15.0 mmHg; under setting [1], 13.5 mmHg; under setting [2], 13.2 mmHg; under setting [3], 13.4 mmHg; under setting [4], 17.1 mmHg. For the same molecule, the “Mean Intraocular Pressure in mmHg” value runs as follows: under setting [5], 19.0 mmHg; under setting [6], 17.2 mmHg.
`CC(C)C[C@H](O)[C@H](O)[C@H](CC1CCCCC1)NC(=O)[C@H](Cc1cnc[nH]1)NC(=O)[C@H](Cc1ccccc1)NC(=O)N1CCOCC1` [Compound I, (4-morpholinyl)carbonyl Phe-His amide of 2(S) amino-1 cyclohexyl-(3R),4(S)dihydroxy-6-methylheptane]: the “Mean Intraocular Pressure in mmHg” value amounted to 19.0 mmHg (0 minutes after administration); 18.2 mmHg (5 minutes after administration); 16.5 mmHg under setting [1]; 12.2 mmHg under setting [2]; 13.9 mmHg under setting [3]; 15.1 mmHg under setting [4]. The “Mean Intraocular Pressure in mmHg” value was 16.8 mmHg under setting [5] and 20.4 mmHg under setting [6].
In the case of `CCN1C[C@@H]([C@H](O)[C@H](CC2CCCCC2)NC(=O)[C@H](Cc2cnc[nH]2)NC(=O)[C@@H](CC(=O)N(C)CCOCOCCOC)Cc2ccccc2)OC1=O` [Compound IV, (2R)-2-benzyl-3-((2-methoxyethoxy-methoxyethyl)methylaminocarbonyl)propionyl-His amide of (2'S,1'R,5S)-3-ethyl-5-(1'-hydroxy 2'-amino-3'-cyclohexylpropyl) -oxazolidin-2-one], the “Mean Intraocular Pressure in mmHg” value (0 minutes after administration) is recorded as 18.2 mmHg; the “Mean Intraocular Pressure in mmHg” value (5 minutes after administration) came out at 14.5 mmHg; the “Mean Intraocular Pressure in mmHg” value under setting [1] is 13.0 mmHg; the “Mean Intraocular Pressure in mmHg” value under setting [2] is given as 13.3 mmHg; the “Mean Intraocular Pressure in mmHg” value under setting [3] is 14.2 mmHg; the “Mean Intraocular Pressure in mmHg” value under setting [4] was determined as 16.3 mmHg. The “Mean Intraocular Pressure in mmHg” value amounted to 14.9 mmHg under setting [5] and 16.2 mmHg under setting [6].
Regarding “Boc-Phe-His amide of (2S,4S,1'R,2'S)-2-(2-amino-7-cyclohexyl-4,5-dihydroxyheptan-2-oic acid sodium salt [Compound XI]”, the “Mean Intraocular Pressure in mmHg” value is, setting by setting: (0 minutes after administration) 18.5 mmHg; (5 minutes after administration) 13.4 mmHg; under setting [1], 11.4 mmHg; under setting [2], 10.6 mmHg; under setting [3], 14.6 mmHg; under setting [4], 16.1 mmHg. Moreover, the “Mean Intraocular Pressure in mmHg” value under setting [5] was 15.7 mmHg and the “Mean Intraocular Pressure in mmHg” value under setting [6] is given as 19.0 mmHg.
As to `CCOC(=O)[C@H](C)NC(Cc1ccccc1)C(=O)NC(Cc1cnc[nH]1)C(=O)N[C@@H](CC1CCCCC1)[C@@H](O)[C@@H](O)CC(C)C` (stereo partly drawn) [Compound XIV, (1(S)-(Ethoxycarbonyl)-ethyl)-Phe-His amide of 2 (S)-amino 1-cyclohexyl-3(R),4(S)-dihydroxy 6-methylheptane], the “Mean Intraocular Pressure in mmHg” value stood at 21.0 mmHg (0 minutes after administration); 16.8 mmHg (5 minutes after administration); 14.0 mmHg under setting [1]; 15.1 mmHg under setting [2]; 14.6 mmHg under setting [3]; 16.4 mmHg under setting [4]. In addition, the “Mean Intraocular Pressure in mmHg” value runs as follows: under setting [5], 17.9 mmHg; under setting [6], 19.6 mmHg.
On to `CC(C)CC(NC(=O)C(Cc1ccccc1)NC(=O)CCCC(=O)O)C(=O)N[C@@H](CC1CCCCC1)[C@@H](O)[C@@H](O)CC(C)C` (stereo partly drawn) [Compound XIII, 4-Carboxybutyroyl-Phe-Leu amide of 2(S)-amino 1-cyclohexyl 3(R),4(S)-dihydroxy 6-methylheptane], for which the “Mean Intraocular Pressure in mmHg” value turned out to be 19.5 mmHg (0 minutes after administration); 17.6 mmHg (5 minutes after administration); 17.2 mmHg under setting [1]; 15.6 mmHg under setting [2]; 16.4 mmHg under setting [3]; 16.3 mmHg under setting [4]. Also, the “Mean Intraocular Pressure in mmHg” value is, setting by setting: under setting [5], 17.5 mmHg; under setting [6], 15.3 mmHg.
In the case of `CC[C@@H]1C(=O)OC[C@@H]1Cc1cncn1C` [Pilocarpine, reference compound], the “Mean Intraocular Pressure in mmHg” value by setting is: (0 minutes after administration) 17.6 mmHg; (5 minutes after administration) 14.4 mmHg; under setting [1], 13.0 mmHg; under setting [2], 11.9 mmHg; under setting [3], 13.0 mmHg; under setting [4], 12.6 mmHg. The “Mean Intraocular Pressure in mmHg” value is 16.4 mmHg under setting [5] and 17.7 mmHg under setting [6].

(Values after patent publication US5059589A, “Glaucoma treatment” (Abbott Laboratories, priority 1990, dated 1991).)
